Format in all cases: cell-based
Test [1] deals with GR. Put plainly: qPCR of endogenous GR target genes, cell line not distinguished (FIG. 4B, 5D). Particulars: with dex, 24 hr. An excerpt:
Quantitative PCR. Total RNA isolation used Trizol and Pure Link (Invitrogen). […] Rpl19 expression was used for data normalization.
Background: Quantitative PCR measures a nucleic acid by following its amplification.

Test [2] deals with T1, GR (Homo sapiens, UniProt P04150).
T1 sequence (P04150 1-777): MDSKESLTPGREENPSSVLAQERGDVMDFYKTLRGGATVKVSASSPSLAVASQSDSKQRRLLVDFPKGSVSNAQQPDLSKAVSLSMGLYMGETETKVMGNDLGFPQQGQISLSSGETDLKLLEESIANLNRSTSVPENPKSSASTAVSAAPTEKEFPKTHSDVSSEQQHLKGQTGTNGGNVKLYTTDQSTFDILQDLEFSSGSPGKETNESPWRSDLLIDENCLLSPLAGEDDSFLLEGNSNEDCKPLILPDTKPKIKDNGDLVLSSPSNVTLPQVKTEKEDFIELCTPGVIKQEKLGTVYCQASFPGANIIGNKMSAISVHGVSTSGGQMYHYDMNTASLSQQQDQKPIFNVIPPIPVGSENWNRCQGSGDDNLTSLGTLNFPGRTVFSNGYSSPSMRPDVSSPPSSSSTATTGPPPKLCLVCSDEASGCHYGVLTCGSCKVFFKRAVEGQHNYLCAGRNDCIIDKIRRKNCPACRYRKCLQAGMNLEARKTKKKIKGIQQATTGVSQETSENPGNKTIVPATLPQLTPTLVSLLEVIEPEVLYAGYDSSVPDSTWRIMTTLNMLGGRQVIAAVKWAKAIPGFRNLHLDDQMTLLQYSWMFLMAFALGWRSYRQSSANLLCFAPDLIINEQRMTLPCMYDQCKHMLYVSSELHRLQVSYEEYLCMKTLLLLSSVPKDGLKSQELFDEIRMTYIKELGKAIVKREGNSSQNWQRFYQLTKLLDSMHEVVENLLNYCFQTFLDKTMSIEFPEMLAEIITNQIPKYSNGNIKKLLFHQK
In words: Multi-promoter fluorescent protein reporter compound screen for GR modulators. Details: endogenous in cells; host or cells: A549. Particulars: A549 cells, library compounds 2.5 μM with dex 100 nM; reporter fluorescence relative to plate mean. The method, then: Compound Screen. A549 cells were transfected with an equal mixture of pENaC-CFP, pGILZ-YFP, pFKBP5-OFP (1.3 μg each), or with pSV40-ChFP (4 μg). The next day, cells were mixed (˜1.8×10^4 of the cells triple-transfected with pENaC-CFP, pGILZ-YFP, pFKBP5-OFP; ˜2×10^3 cells transfected with pSV40-ChFP) and replated into 96 well plates (Costar 3603). 2 hours later, library compounds (2.5 μM) and dex (100 nM) were added using a Biomek robot. The following day, cells were fixed for 4 minutes in 4% paraformaldehyde and fluorescence was measured sequentially for each reporter using a Safire plate reader (Tecan). Hits were scored based on the mean and standard deviation (s.d.) of the experimental wells on each plate. Criteria for a hit were if one reporter was more than 1.5×s.d. from the mean in duplicate, or if two reporters were more than 0.8×s.d. from the mean in duplicate. If the control SV40-ChFP was more than 2×s.d. from the mean in a single plate, or 0.8×s.d. in duplicate plates (in the same direction as the GR reporters), the well was not scored as a hit.
We used the system of Example 1 to screen a library of 1040 natural products and FDA-approved drugs for modulators of GR signaling (Abbott, A. Nature 417:109). The screen design is outlined in FIG. 2. The pENaC-CFP, pGILZ-YFP, and pFKBP5-OFP reporters indicated GR signaling, while pSV40-mCh, an internal control, excluded non-specific transcription inhibitors and toxins. We screened the library in duplicate in the presence of saturating dex (100 nM). Z′, a function that reflects the ability to discriminate between control and experimental wells (Zhang, J. H. et al., J Biomol Screen 4:67-73 (1999)), was determined for dex treatment of each GR reporter. The Z′ values were: Z′(ENAC-CFP)=0.68; Z′(GILZ-YFP)=0.64; and Z′(FKBP5-OFP)=0.66. These indicate that the screen should efficiently identify compounds that increase or decrease fluorescence from any of the three experimental promoters (Zhang, J. H. et al., J Biomol Screen 4:67-73 (1999)).

Test [3] has as its target T1, GR. In words: Luciferase assays, GR-responsive reporters, A549 cells. Also on record: endogenous in cells; host or cells: A549. Particulars: for Dose dependent: whether the drug acted dose-dependently on GR-luciferase reporters; for GR activity (GR-mediated induction of pENaC-luc reporter): pENaC-luc and pSV40-rl. As for the experimental part: (§1) Transfections. The day prior to transfection, ˜3×10^5 cells were plated in 6-well dishes. Transfections used Lipofectamine 2000 (Invitrogen). 4 μg of total plasmid DNA were used for each transfection. For A549 cells, 500 μL of DNA/lipofectamine complex was added to 1.5 ml of DMEM with pen/strep and 5% FBS. For U2OS cells, 500 μl of DNA/lipofectamine complex was added to 1.5 ml of Optimem. After 3-4 hours of incubation, media was replaced with standard growth media.
(§2) Luciferase assays. Luciferase assays used the Promega Dual-Luciferase Reporter system. Briefly, cells were transfected with various firefly luciferase plasmids and pSV40-RL at a ratio of 10:1. The day after transfection, cells were split into 96-well dishes and treated with dex and various drugs. Cells were harvested in 50 μl 1XPLB (Promega) 12-18 hr after drug treatment and luciferase assays were performed on 10 μl of lysate. Luminscence was detected using an Ultra Evolution plate reader (Tecan).
(Reporter assays use an easily measured gene product as a stand-in for the process of interest.)

In test [4] the target is T2, GR (Rattus norvegicus, UniProt P06536).
T2 construct: expressed in transfected cells; host or cells: U2OS-GR
T2 sequence (P06536 1-795): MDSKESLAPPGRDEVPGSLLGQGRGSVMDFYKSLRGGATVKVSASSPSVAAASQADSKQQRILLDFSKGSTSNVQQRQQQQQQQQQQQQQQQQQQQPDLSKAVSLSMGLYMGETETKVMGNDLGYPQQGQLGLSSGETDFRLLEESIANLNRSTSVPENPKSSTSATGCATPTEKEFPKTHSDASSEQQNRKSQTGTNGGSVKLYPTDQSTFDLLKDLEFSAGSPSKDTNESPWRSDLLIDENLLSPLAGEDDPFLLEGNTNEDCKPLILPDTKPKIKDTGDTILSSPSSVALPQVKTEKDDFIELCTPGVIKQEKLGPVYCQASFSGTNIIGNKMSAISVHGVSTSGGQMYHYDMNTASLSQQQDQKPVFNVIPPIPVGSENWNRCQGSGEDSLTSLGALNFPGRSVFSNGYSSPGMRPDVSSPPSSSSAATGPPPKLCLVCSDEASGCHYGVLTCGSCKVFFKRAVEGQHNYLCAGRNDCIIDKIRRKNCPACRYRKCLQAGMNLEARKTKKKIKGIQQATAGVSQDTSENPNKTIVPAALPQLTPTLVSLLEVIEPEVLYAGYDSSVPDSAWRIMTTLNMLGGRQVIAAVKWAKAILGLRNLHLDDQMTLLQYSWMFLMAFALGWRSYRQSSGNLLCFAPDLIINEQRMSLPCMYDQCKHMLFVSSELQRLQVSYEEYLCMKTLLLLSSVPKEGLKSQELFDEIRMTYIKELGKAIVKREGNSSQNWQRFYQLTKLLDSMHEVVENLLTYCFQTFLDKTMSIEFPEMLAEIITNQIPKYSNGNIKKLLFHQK
Put plainly: Luciferase assays, GR-responsive reporters, U2OS-GR cells. Particulars: pENaC-luc and pSV40-rl, with dex. As for the experimental part:
as §1, §2

For `Cc1cc(C2CCCCC2)n(O)c(=O)c1` [Ciclopirox olamine], in the test with GR [1], the “expression of endogenous GR target genes (qPCR), overall” value (shortened to “expression”) is recorded as “general GR antagonist”. Besides, at GR [2], the ENaC-CFP result is “↓^c (0.8 to 2 s.d. less than the mean (↓))”, the FKBP5-OFP result is recorded as “no effect” and the GILZ-YFP result was “↓ (0.8 to 2 s.d. less than the mean (↓))”. Further, the Dose dependent entry on GR [3] was “dose dependent effects and yes”.
As for `COc1cccc2c1C(=O)c1c(O)c3c(c(O)c1C2=O)C[C@@](O)(C(=O)CO)C[C@@H]3O[C@H]1C[C@H](N)[C@H](O)[C@H](C)O1` [Doxorubicin], the “GR activity (GR-mediated induction of pENaC-luc reporter)” value at GR [3] (A549 cells, with dex) was “inhibited GR”.
In the case of `O=c1oc2c(O)c(O)cc3c(=O)oc4c(O)c(O)cc1c4c23` [Ellagic Acid], at GR [2], the ENaC-CFP result is “No effect”, the FKBP5-OFP entry is reported as “↓ (0.8 to 2 s.d. less than the mean (↓))” and the GILZ-YFP entry is recorded as “↓ (0.8 to 2 s.d. less than the mean (↓))”. Also, the Dose dependent result at GR [3] is “no”.
For the molecule `CCCCCC(=O)O[C@]1(C(C)=O)CC[C@H]2[C@@H]3CCC4=CC(=O)CC[C@]4(C)[C@H]3CC[C@@]21C` [Hpg. caproate, Hydroxyprogesterone caproate], in the test on GR [1], the “expression” value is given as “selectively modulated endogenous GR target genes”; the “induction of endogenous ENaC (qPCR)” value is on record as “no impact”; the “induction of endogenous FKBP5 (qPCR)” value is recorded as “reduced induction”; the “induction of endogenous GILZ (qPCR)” value is “reduced induction”. In addition, on GR [2], the ENaC-CFP entry is on record as “No effect”, the FKBP5-OFP entry is recorded as “↓↓↓ (more than 2 standard deviations (s.d.) less than the mean (↓↓↓))” and the GILZ-YFP result is given as “↓↓↓ (more than 2 standard deviations (s.d.) less than the mean (↓↓↓))”. Also, the Dose dependent entry on GR [3] is reported as “yes”. In addition, the Dose dependent entry at GR [3] (listed as Hpg) is given as “dose dependent effects”.
Turning to `C[N+]1(C)CCCC(OC(=O)C(O)(c2ccccc2)c2ccccc2)C1` (centres unmarked) [Mepenzolate], at GR [2], the ENaC-CFP entry is listed as “No effect”, the FKBP5-OFP entry was “↓ (0.8 to 2 s.d. less than the mean (↓))” and the GILZ-YFP entry is on record as “↓ (0.8 to 2 s.d. less than the mean (↓))”. On GR [3], the Dose dependent result was “no”.
`O=C1c2c(O)ccc(O)c2C(=O)c2c(NCCNCCO)ccc(NCCNCCO)c21` [Mitoxantrone]: the “GR activity (luciferase reporter)” value at GR [4] was “inhibited GR”. Besides, on GR [2], the ENaC-CFP result was “↓↓↓ (more than 2 standard deviations (s.d.) less than the mean (↓↓↓))”, the FKBP5-OFP entry is “↓↓↓ (more than 2 standard deviations (s.d.) less than the mean (↓↓↓))” and the GILZ-YFP entry is on record as “↓↓↓ (more than 2 standard deviations (s.d.) less than the mean (↓↓↓))”. The “GR activity (GR-mediated induction of pENaC-luc reporter)” value at GR [3] (A549 cells, with dex) is listed as “antagonists of GR”. Further, the Dose dependent entry at GR [3] is reported as “yes”.
With `O=C1C=CC(=C(c2ccccc2)c2ccc(O)cc2)C=C1` [NSC55861], the “GR activity (GR-mediated induction of pENaC-luc reporter)” value on GR [3] (A549 cells, with dex) is “dose dependently reduced GR activity”.
The same measure, in the same setting: as for `O=C(/C=C/c1ccccc1)/C=C/c1ccccc1O` [NSC636788], the entry is “dose dependently reduced GR activity”.
As to `COC(=O)[C@H]1[C@H]2C[C@@H]3c4[nH]c5cc(OC)ccc5c4CCN3C[C@H]2C[C@@H](OC(=O)c2cc(OC)c(OC)c(OC)c2)[C@@H]1OC` [Reserpine], on GR [2], the ENaC-CFP result is on record as “↑ (0.8 to 2 s.d. greater than the mean (↑))”, the FKBP5-OFP entry is “↑ (0.8 to 2 s.d. greater than the mean (↑))” and the GILZ-YFP result was “↑ (0.8 to 2 s.d. greater than the mean (↑))”. Further, the Dose dependent entry on GR [3] is given as “no”.
In the case of `O=C1C=CC(=C(c2ccc(O)cc2)c2ccc(O)cc2)C=C1` [Rosolic Acid], in the test with GR [1], the “expression” value is “selectively modulated endogenous GR target genes”; the “induction of endogenous ENaC (qPCR)” value is on record as “inhibited”; the “induction of endogenous FKBP5 (qPCR)” value is listed as “inhibited”; the “induction of endogenous GILZ (qPCR)” value is reported as “failed to inhibit”. At GR [2], the ENaC-CFP entry is reported as “↓ (0.8 to 2 s.d. less than the mean (↓))”, the FKBP5-OFP entry is given as “↓ (0.8 to 2 s.d. less than the mean (↓))” and the GILZ-YFP result was “No effect”. Moreover, the Dose dependent entry on GR [3] was “yes”. For the same molecule, the Dose dependent result on GR [3] (listed as rosolic acid) is given as “dose dependent effects”.
`CS(=O)(=O)c1ccc([C@@H](O)[C@@H](CO)NC(=O)C(Cl)Cl)cc1` [Thiamphenicol]: on GR [2], the ENaC-CFP entry is listed as “No effect”, the FKBP5-OFP result is recorded as “↑↑↑^e (more than 2 s.d. greater than the mean (↑↑↑))” and the GILZ-YFP entry is listed as “No effect”. Further, the Dose dependent entry at GR [3] was “no”.
On to `COc1cccc2c1C(=O)c1c(O)c3c(c(O)c1C2=O)C[C@@](O)(C(C)=O)C[C@@H]3O[C@H]1C[C@H](N)[C@H](O)[C@H](C)O1` [daunorubicin], for which the “GR activity (GR-mediated induction of pENaC-luc reporter)” value at GR [3] (A549 cells, with dex) is on record as “inhibited GR”.
For a amanitin, the “effect on GR-dependent reporter pENaC-luc compared with GR-independent constitutive reporter pSV40-rl” value on GR [3] (A549 cells, with dex) was “reduced the activity of both reporters to similar extents”.

These data come from patent US8940705B2, “Method of treating disease and selectively modulating transcriptional regulation by a glucocorticoid receptor by administering aclacinomycin and dexamethasone” (The Regents of the University of California, priority 2009, dated 2015).
